IC50 data for 17 compounds are collected here from patent US20240190892A1, “PLASMA KALLIKREIN INHIBITORS” (Merck Sharp & Dohme LLC, priority 2021, published 2024).

One assay concerns the target Coagulation factor XIa (Homo sapiens (Human), UniProt P03951). Put plainly: Factor XIa Assay. It is filed as biochemical. The note with it: human factor XIa 0.04 nM, substrate GPR-AFC, 30 min pre-incubation at 25° C., pH 7.4; read-out: FXIa IC50. Here is the method: (§1) The effectiveness of a compound of the present invention as an inhibitor of Coagulation factor XIa can be determined using a relevant purified serine protease, and an appropriate synthetic substrate. The rate of hydrolysis of the chromogenic or fluorogenic substrate by the relevant serine protease was measured both in the absence and presence of compounds of the present invention. Assays were conducted at rt or at 37° C. […] A decrease in the rate of fluorescence change in the presence of inhibitor is indicative of enzyme inhibition. Such methods are known to one skilled in the art. The results of this assay are expressed as the half-maximal inhibitory concentrations (IC50), or the inhibitory constant, Ki.
Compounds were pre-incubated for 30 min at 25° C. with human (0.04 nM) factor XIa in 50 mM HEPES buffer with 150 mM sodium chloride, 5 mM calcium chloride, 0.1% PEG 8000, pH 7.4. factor XIa enzymatic activity was determined by addition of the substrate glycine-proline-arginine-7-amido-4-trifluoromethylcoumarin (GPR-AFC) and measurement of the fluorescence at 400/505 nm after a 60 min incubation at 25° C. The % inhibition for each data point was calculated from the data and analyzed using the log (inhibitor) vs. response four parameters equation to determine the half-maximal inhibitory concentrations (IC50). The IC50 were converted to equilibrium inhibitory constants (Ki) using the Cheng-Prusoff equation.

The next assay addresses Human plasma kallikrein (Homo sapiens (Human), UniProt P03952). The experiment in a line: Plasma Kallikrein Assay. The conditions noted are these: purified Human plasma kallikrein 0.5 nM, substrate Acetyl-K-P-R-AFC, pH 7.4; read-out: PKal IC50. It is filed as biochemical. The method, then: as §1, with “plasma kallikrein” for “Coagulation factor XIa”
Plasma kallikrein determinations were made in 50 mM HEPES buffer at pH 7.4 containing 150 mM NaCl, 5 mM CaCl2, and 0.1% PEG 8000 (polyethylene glycol; Fisher Scientific). Determinations were made using purified Human plasma kallikrein at a final concentration of 0.5 nM (Enzyme Research Laboratories) and the synthetic substrate, Acetyl-K-P-R-AFC (Sigma #C6608) at a concentration of […].
Activity assays were performed by diluting a stock solution of substrate at least tenfold to a final concentration ≤0.2 Km into a solution containing enzyme or enzyme equilibrated with inhibitor. Times required to achieve equilibration between enzyme and inhibitor were determined in control experiments. The reactions were performed under linear progress curve conditions and fluorescence increase measured at 405 Ex/510 Em nm. Values were converted to percent inhibition of the control reaction (after subtracting 100% Inhibition value). IC50 was determined by inflection point from a four parameter logistic curve fit. Ki was calculated using the Cheng Prusoff equation, Ki=IC50/(1+[S]/Km)).

Each structure is given as a SMILES string.

Coagulation factor XIa, sequence (P03951 388-625 limits assumed): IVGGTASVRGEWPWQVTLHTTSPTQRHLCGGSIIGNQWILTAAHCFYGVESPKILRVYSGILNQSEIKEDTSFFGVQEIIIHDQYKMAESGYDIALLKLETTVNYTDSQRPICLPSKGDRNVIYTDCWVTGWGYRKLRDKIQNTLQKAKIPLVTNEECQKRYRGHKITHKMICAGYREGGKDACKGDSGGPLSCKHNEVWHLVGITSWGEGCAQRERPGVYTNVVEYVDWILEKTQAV
Coagulation factor XIa, sequence (P03951 19-387 partner limits assumed): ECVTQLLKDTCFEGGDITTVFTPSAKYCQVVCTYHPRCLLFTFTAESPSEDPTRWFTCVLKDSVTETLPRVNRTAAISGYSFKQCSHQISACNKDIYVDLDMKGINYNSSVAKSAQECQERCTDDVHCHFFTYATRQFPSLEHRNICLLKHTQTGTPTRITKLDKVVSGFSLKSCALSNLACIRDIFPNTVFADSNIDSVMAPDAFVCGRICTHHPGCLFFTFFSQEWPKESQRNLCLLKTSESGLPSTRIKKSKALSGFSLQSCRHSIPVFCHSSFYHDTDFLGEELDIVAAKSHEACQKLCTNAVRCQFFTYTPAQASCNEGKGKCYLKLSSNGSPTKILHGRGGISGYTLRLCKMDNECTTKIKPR
Human plasma kallikrein, sequence (P03952 391-638 limits assumed): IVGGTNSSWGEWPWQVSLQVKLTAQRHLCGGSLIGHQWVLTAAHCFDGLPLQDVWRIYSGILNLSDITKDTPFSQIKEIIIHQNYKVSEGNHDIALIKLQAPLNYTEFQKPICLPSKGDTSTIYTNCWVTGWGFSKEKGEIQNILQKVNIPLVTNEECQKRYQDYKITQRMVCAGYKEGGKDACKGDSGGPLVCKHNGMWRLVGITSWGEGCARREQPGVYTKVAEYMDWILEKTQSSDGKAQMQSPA
Human plasma kallikrein, sequence (P03952 20-390 partner limits assumed): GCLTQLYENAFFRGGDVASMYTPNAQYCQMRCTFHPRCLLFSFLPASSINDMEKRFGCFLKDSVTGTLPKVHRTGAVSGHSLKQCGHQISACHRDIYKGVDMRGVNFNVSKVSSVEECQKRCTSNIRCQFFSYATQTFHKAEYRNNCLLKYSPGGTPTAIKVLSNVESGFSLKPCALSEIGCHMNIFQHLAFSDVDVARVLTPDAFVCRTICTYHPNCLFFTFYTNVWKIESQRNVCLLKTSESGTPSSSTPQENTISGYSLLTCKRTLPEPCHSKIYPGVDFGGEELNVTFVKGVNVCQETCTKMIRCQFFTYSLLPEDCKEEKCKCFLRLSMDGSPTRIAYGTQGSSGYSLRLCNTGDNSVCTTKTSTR

Usually IC50 stands for the midpoint of a concentration-inhibition curve. For the compound `O=C1Nc2ccc(Cl)c(F)c2[C@]2(CCN(c3cc(C(=O)NCc4ccc(N5CCC(F)(F)C5)cc4F)cnn3)C2)O1` [Example 8, (S)-6-(6-Chloro-5-fluoro-2-oxo-1,2-dihydrospiro[benzo[d][1,3]oxazine-4,3′-pyrrolidin]-1′-yl)-N-(4-(3,3-difluoropyrrolidin-1-yl)-2-fluorobenzyl)pyridazine-4-carboxamide], the IC50 on Coagulation factor XIa was found to be 10 µM; at Human plasma kallikrein, 0.0304 µM.
The like results for `O=C1Nc2ccc(Cl)c(F)c2[C@]2(CCN(c3cncc(C(=O)NCc4ccc(Cn5ccccc5=O)nc4)n3)C2)O1` [Example 14, (S)-6-(6-Chloro-5-fluoro-2-oxo-1,2-dihydrospiro[benzo[d][1,3]oxazine-4,3′-pyrrolidin]-1′-yl)-N-((6-((2-oxopyridin-1(2H)-yl)methyl)pyridin-3-yl)methyl)pyrazine-2-carboxamide] were, in that order, 10 µM and 0.0016 µM.
The like results for `O=C1Nc2ccc(Cl)c(F)c2[C@]2(CCN(c3cncc(C(=O)NCc4ccc(N5CC[C@H](F)C5)nc4)n3)C2)O1` [Example 38, (S)-6-(6-Chloro-5-fluoro-2-oxo-1,2-dihydrospiro[benzo[d][1,3]oxazine-4,3′-pyrrolidin]-1′-yl)-N-((6-((S)-3-fluoropyrrolidin-1-yl)pyridin-3-yl)methyl)pyrazine-2-carboxamide] were, in that order, 10 µM and 0.0358 µM.
The like results for `COCC1CN(c2ccc(CNC(=O)c3cnnc(N4CC[C@]5(C4)OC(=O)Nc4ccc(Cl)c(F)c45)c3)cn2)C1` [Example 27, (S)-6-(6-Chloro-5-fluoro-2-oxo-1,2-dihydrospiro[benzo[d][1,3]oxazine-4,3′-pyrrolidin]-1′-yl)-N-((6-(3-(methoxymethyl)azetidin-1-yl)pyridin-3-yl)methyl)pyridazine-4-carboxamide] were, in that order, 10 µM and 0.0143 µM.
For `O=C1Nc2ccc(Cl)c(F)c2[C@]2(CCN(c3cc(C(=O)NCc4ccc(Cn5ccccc5=O)cc4)cnn3)C2)O1` [Example 17, (S)-6-(6-Chloro-5-fluoro-2-oxo-1,2-dihydrospiro[benzo[d][1,3]oxazine-4,3′-pyrrolidin]-1′-yl)-N-(4-((2-oxopyridin-1(2H)-yl)methyl)benzyl)pyridazine-4-carboxamide], the IC50 at Coagulation factor XIa turned out to be 10 µM; at Human plasma kallikrein, 0.0163 µM.
On to `CCC(NCc1ccc(CNC(=O)c2cnnc(N3CC[C@]4(C3)OC(=O)Nc3ccc(Cl)c(F)c34)c2)cc1)C(F)(F)F` (stereo partly drawn) [Example 46, (S)-6-(6-Chloro-5-fluoro-2-oxo-1,2-dihydrospiro[benzo[d][1,3]oxazine-4,3′-pyrrolidin]-1′-yl)-N-(4-(((1,1,1-trifluorobutan-2-yl)amino)methyl)benzyl) pyridazine-4-carboxamide], for which the figures for the IC50 at Coagulation factor XIa and on Human plasma kallikrein were 10 µM and 0.038 µM, respectively.
The like results for `O=C1Nc2ccc(Cl)c(F)c2[C@]2(CCN(c3cncc(C(=O)NCc4ccc(N5CC6CC6C5)nc4)n3)C2)O1` (stereo partly drawn) [Example 40, N-((6-(3-Azabicyclo[3.1.0]hexan-3-yl)pyridin-3-yl)methyl)-6-((S)-6-chloro-5-fluoro-2-oxo-1,2-dihydrospiro[benzo[d][1,3]oxazine-4,3′-pyrrolidin]-1′-yl)pyrazine-2-carboxamide] were, in that order, 10 µM and 0.0186 µM.
On to `O=C1Nc2ccc(Cl)c(F)c2[C@]2(CCN(c3cc(C(=O)NCc4ccc(N5CCOCC5)nc4)cnn3)C2)O1` [Example 29, (S)-6-(6-Chloro-5-fluoro-2-oxo-1,2-dihydrospiro[benzo[d][1,3]oxazine-4,3′-pyrrolidin]-1′-yl)-N-((6-morpholinopyridin-3-yl)methyl)pyridazine-4-carboxamide], for which the concentration for half-maximal inhibition (IC50) came to 10 µM at Coagulation factor XIa and 0.005 µM at Human plasma kallikrein.
The like results for `O=C1Nc2ccc(Cl)c(F)c2[C@]2(CCN(c3cncc(C(=O)NCc4ccc(N5CCOCC5)nc4)n3)C2)O1` [Example 42, (S)-6-(6-Chloro-5-fluoro-2-oxo-1,2-dihydrospiro[benzo[d][1,3]oxazine-4,3′-pyrrolidin]-1′-yl)-N-((6-morpholinopyridin-3-yl)methyl)pyrazine-2-carboxamide] were, in that order, 10 µM and 0.0118 µM.
The like results for `Cc1cnn(Cc2ccc(CNC(=O)c3cncc(N4CC[C@]5(C4)OC(=O)Nc4ccc(Cl)c(F)c45)n3)cn2)c1` [Example 21, (S)-6-(6-Chloro-5-fluoro-2-oxo-1,2-dihydrospiro[benzo[d][1,3]oxazine-4,3′-pyrrolidin]-1′-yl)-N-((6-((4-methyl-1H-pyrazol-1-yl)methyl)pyridin-3-yl)methyl)pyrazine-2-carboxamide] were, in that order, 10 µM and 0.0023 µM.
The like results for `Nc1nccc2cc(CNC(=O)c3cncc(N4CC[C@]5(C4)OC(=O)Nc4ccc(Cl)c(F)c45)n3)ccc12` [Example 32, (S)-N-((1-Aminoisoquinolin-6-yl)methyl)-6-(6-chloro-5-fluoro-2-oxo-1,2-dihydrospiro[benzo[d][1,3]oxazine-4,3′-pyrrolidin]-1′-yl)pyrazine-2-carboxamide] were, in that order, 10 µM and 0.019 µM.
As to `CCC(F)(F)NCc1ccc(CNC(=O)c2cnnc(N3CC[C@]4(C3)OC(=O)Nc3ccc(Cl)c(F)c34)c2)cc1` [Example 44, (S)-6-(6-Chloro-5-fluoro-2-oxo-1,2-dihydrospiro[benzo[d][1,3]oxazine-4,3′-pyrrolidin]-1′-yl)-N-(4-(((1,1-difluoropropyl)amino)methyl)benzyl)pyridazine-4-carboxamide], the IC50 amounted to 7.66 µM on Coagulation factor XIa and 0.0583 µM at Human plasma kallikrein.
As for `COCC1CN(c2ccc(CNC(=O)c3cncc(N4CC[C@]5(C4)OC(=O)Nc4ccc(Cl)c(F)c45)n3)cn2)C1` [Example 34, (S)-6-(6-Chloro-5-fluoro-2-oxo-1,2-dihydrospiro[benzo[d][1,3]oxazine-4,3′-pyrrolidin]-1′-yl)-N-((6-(3-(methoxymethyl)azetidin-1-yl)pyridin-3-yl)methyl)pyrazine-2-carboxamide], the IC50 turned out to be 10 µM at Coagulation factor XIa and 0.0054 µM on Human plasma kallikrein.
The like results for `CN1CCN(c2ccc(CNC(=O)c3cnnc(N4CC[C@]5(C4)OC(=O)Nc4ccc(Cl)c(F)c45)c3)cn2)CC1` [Example 28, (S)-6-(6-Chloro-5-fluoro-2-oxo-1,2-dihydrospiro[benzo[d][1,3]oxazine-4,3′-pyrrolidin]-1′-yl)-N-((6-(4-methylpiperazin-1-yl)pyridin-3-yl)methyl)pyridazine-4-carboxamide] were, in that order, 10 µM and 0.0019 µM.
The like results for `O=C1Nc2ccc(Cl)c(F)c2[C@]2(CCN(c3cncc(C(=O)NCc4ccc(N5CC(O)(C(F)(F)F)C5)nc4)n3)C2)O1` [Example 36, (S)-6-(6-Chloro-5-fluoro-2-oxo-1,2-dihydrospiro[benzo[d][1,3]oxazine-4,3′-pyrrolidin]-1′-yl)-N-((6-(3-hydroxy-3-(trifluoromethyl)azetidin-1-yl)pyridin-3-yl)methyl)pyrazine-2-carboxamide] were, in that order, 10 µM and 0.0437 µM.
The like results for `Cc1cnn(Cc2ccc(CNC(=O)c3cc(N4CC[C@]5(C4)OC(=O)Nc4ccc(Cl)c(F)c45)ncn3)cc2)c1` [Example 19, (S)-6-(6-Chloro-5-fluoro-2-oxo-1,2-dihydrospiro[benzo[d][1,3]oxazine-4,3′-pyrrolidin]-1′-yl)-N-(4-((4-methyl-1H-pyrazol-1-yl)methyl)benzyl)pyrimidine-4-carboxamide] were, in that order, 10 µM and 0.0256 µM.
As for `Cc1cnn(Cc2ccc(CNC(=O)c3ccnc(N4CC[C@]5(C4)OC(=O)Nc4ccc(Cl)c(F)c45)c3)cc2)c1` [Example 22, (S)-2-(6-Chloro-5-fluoro-2-oxo-1,2-dihydrospiro[benzo[d][1,3]oxazine-4,3′-pyrrolidin]-1′-yl)-N-(4-((4-methyl-1H-pyrazol-1-yl)methyl)benzyl)isonicotinamide], the IC50 on Coagulation factor XIa is 10 µM; at Human plasma kallikrein, 0.0047 µM.
